The assay addresses T1, furin (Homo sapiens, UniProt P09958).
T1 construct: made in house; host or cells: Drosophila S2 cells (Invitrogen expression system)
The assay is described as follows: biochemical. The following applies: read-out: Ki.

Setting [1] is: furin, Pyr-RTKR-AMC substrate, optimization of the inhibitory peptides (Table 3).
[2] abbreviates: furin, Pyr-RTKR-AMC substrate, alanine scanning mutagenesis of the H5 furin cleavage sequence (Table 2).

The pKi is −log10 of the Ki, conventionally taken in molar units.

pKi: −log10 of the molar value. Where two headings read alike, the source gives them in different places. Residues, ends and D or L forms follow the SMILES beside them.

T1 sequence (P09958 108-794 limits assumed): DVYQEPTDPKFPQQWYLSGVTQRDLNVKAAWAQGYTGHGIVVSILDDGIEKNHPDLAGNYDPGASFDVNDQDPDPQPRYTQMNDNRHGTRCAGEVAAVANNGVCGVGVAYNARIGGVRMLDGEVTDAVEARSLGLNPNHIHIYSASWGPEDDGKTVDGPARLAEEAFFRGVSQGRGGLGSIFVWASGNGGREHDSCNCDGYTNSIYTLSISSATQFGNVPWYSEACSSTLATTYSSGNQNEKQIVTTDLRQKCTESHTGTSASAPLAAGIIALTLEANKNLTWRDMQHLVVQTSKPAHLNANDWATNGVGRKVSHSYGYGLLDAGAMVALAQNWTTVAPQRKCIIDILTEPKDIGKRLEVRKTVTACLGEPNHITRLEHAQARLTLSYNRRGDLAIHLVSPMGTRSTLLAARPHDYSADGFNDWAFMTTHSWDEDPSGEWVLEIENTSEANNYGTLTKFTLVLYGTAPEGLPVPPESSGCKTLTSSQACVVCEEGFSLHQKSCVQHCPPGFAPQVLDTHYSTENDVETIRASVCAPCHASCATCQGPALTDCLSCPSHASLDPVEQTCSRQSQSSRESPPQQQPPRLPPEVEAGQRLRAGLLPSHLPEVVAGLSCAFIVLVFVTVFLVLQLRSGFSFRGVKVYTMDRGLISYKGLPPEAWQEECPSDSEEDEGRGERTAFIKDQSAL

For the compound `C[C@H](NC(=O)[C@H](CCCNC(=N)N)NC(=O)[C@@H]1CCCN1)C(=O)N[C@@H](CCCNC(=N)N)C(=O)N[C@@H](CCCNC(=N)N)C(=O)N[C@@H](CCCNC(=N)N)C(=O)N[C@@H](CCCCN)C(=O)N[C@@H](CCCCN)C(=O)N[C@@H](CCCNC(=N)N)C(=O)N[C@H](C(N)=O)[C@@H](C)O`, where the note is “furin, Pyr-RTKR-AMC substrate, N-terminal deletions (Example 2, Table 6)”, the pKi is 7.78.
`C[C@H](NC(=O)[C@H](CCCNC(=N)N)NC(=O)[C@H](CCC(N)=O)NC(=O)[C@@H]1CCCN1C(=O)[C@@H](N)[C@@H](C)O)C(=O)N[C@@H](CCCNC(=N)N)C(=O)N[C@@H](CCCNC(=N)N)C(=O)N[C@@H](CCCNC(=N)N)C(=O)N[C@@H](CCCCN)C(=O)N[C@@H](CCCCN)C(=O)N[C@@H](CCCNC(N)=O)C(=O)NCC(N)=O`: the negative-log Ki (pKi) under setting [1] is under 7.00.
The same measure, in the same setting: then `C[C@H](NC(=O)[C@H](CCCNC(=N)N)NC(=O)[C@H](CCC(N)=O)NC(=O)[C@@H]1CCCN1C(=O)[C@@H](N)[C@@H](C)O)C(=O)N[C@@H](CCCNC(=N)N)C(=O)N[C@@H](CCCNC(=N)N)C(=O)N[C@@H](CCCNC(=N)N)C(=O)N[C@@H](CCCCN)C(=O)N[C@@H](CCCCN)C(=O)N[C@@H](CCCNC(=N)N)C(=O)NCC(N)=O`, with under 7.00.
Regarding `C[C@H](NC(=O)[C@H](CCCNC(=N)N)NC(=O)[C@H](CCC(N)=O)NC(=O)[C@@H]1CCCN1C(=O)[C@@H](N)[C@@H](C)O)C(=O)N[C@@H](CCCNC(=N)N)C(=O)N[C@@H](CCCNC(=N)N)C(=O)N[C@@H](CCCNC(=N)N)C(=O)N[C@@H](CCCCN)C(=O)N[C@@H](CCCCN)C(=O)N[C@H](CCCNC(=N)N)C(=O)NCC(N)=O`, the negative logarithm of the Ki (pKi) under setting [1] is under 7.00.
Still for that read-out and setting: the same measure for `C[C@@H](O)[C@H](N)C(=O)N1CCC[C@H]1C(=O)N[C@@H](CCC(N)=O)C(=O)N[C@@H](CCCNC(=N)N)C(=O)N[C@@H](CS)C(=O)N[C@@H](CCCNC(=N)N)C(=O)N[C@@H](CCCNC(=N)N)C(=O)N[C@@H](CCCNC(=N)N)C(=O)N[C@@H](CCCCN)C(=O)N[C@@H](CCCCN)C(=O)N[C@@H](CCCNC(=N)N)C(=O)NCC(N)=O`: under 7.00; for `C[C@@H](O)[C@H](N)C(=O)N1CCC[C@H]1C(=O)N[C@@H](CCC(N)=O)C(=O)N[C@@H](CCCNC(=N)N)C(=O)N[C@@H](CCC(=O)O)C(=O)N[C@@H](CCCNC(=N)N)C(=O)N[C@@H](CCCNC(=N)N)C(=O)N[C@@H](CCCNC(=N)N)C(=O)N[C@@H](CCCCN)C(=O)N[C@@H](CCCCN)C(=O)N[C@@H](CCCNC(=N)N)C(=O)NCC(N)=O`: under 7.00; for `C[C@@H](O)[C@H](N)C(=O)N1CCC[C@H]1C(=O)N[C@@H](CCC(N)=O)C(=O)N[C@@H](CCCNC(=N)N)C(=O)N[C@@H](CCCCN)C(=O)N[C@@H](CCCNC(=N)N)C(=O)N[C@@H](CCCNC(=N)N)C(=O)N[C@@H](CCCNC(=N)N)C(=O)N[C@@H](CCCCN)C(=O)N[C@@H](CCCCN)C(=O)N[C@@H](CCCNC(=N)N)C(=O)NCC(N)=O`: under 7.00.
As for `CC(C)C[C@H](NC(=O)[C@H](CCCNC(=N)N)NC(=O)[C@H](CCC(N)=O)NC(=O)[C@@H]1CCCN1C(=O)[C@@H](N)[C@@H](C)O)C(=O)N[C@@H](CCCNC(=N)N)C(=O)N[C@@H](CCCNC(=N)N)C(=O)N[C@@H](CCCNC(=N)N)C(=O)N[C@@H](CCCCN)C(=O)N[C@@H](CCCCN)C(=O)N[C@@H](CCCNC(=N)N)C(=O)NCC(N)=O`, the negative-log Ki (pKi) under setting [1] was under 7.00.
Same read-out and setting: then `CSCC[C@H](NC(=O)[C@H](CCCNC(=N)N)NC(=O)[C@H](CCC(N)=O)NC(=O)[C@@H]1CCCN1C(=O)[C@@H](N)[C@@H](C)O)C(=O)N[C@@H](CCCNC(=N)N)C(=O)N[C@@H](CCCNC(=N)N)C(=O)N[C@@H](CCCNC(=N)N)C(=O)N[C@@H](CCCCN)C(=O)N[C@@H](CCCCN)C(=O)N[C@@H](CCCNC(=N)N)C(=O)NCC(N)=O`, with under 7.00; and `C[C@@H](O)[C@H](N)C(=O)N1CCC[C@H]1C(=O)N[C@@H](CCC(N)=O)C(=O)N[C@@H](CCCNC(=N)N)C(=O)N[C@@H](CCCNC(=N)N)C(=O)N[C@@H](CCCNC(=N)N)C(=O)N[C@@H](CCCNC(=N)N)C(=O)N[C@@H](CCCNC(=N)N)C(=O)N[C@@H](CCCCN)C(=O)N[C@@H](CCCCN)C(=O)N[C@@H](CCCNC(=N)N)C(=O)NCC(N)=O`, with under 7.00.
Regarding `C[C@H](NC(=O)[C@H](CCCNC(=N)N)NC(=O)[C@@H]1CCCN1C(=O)[C@@H](N)[C@@H](C)O)C(=O)N[C@@H](CCCNC(=N)N)C(=O)N[C@@H](CCCNC(=N)N)C(=O)N[C@@H](CCCNC(=N)N)C(=O)N[C@@H](CCCCN)C(=O)N[C@@H](CCCCN)C(=O)N[C@@H](CCCNC(=N)N)C(N)=O`, under setting [2], the negative-log Ki (pKi) was 6.86.
On the same count and under the same terms, then `C[C@H](NC(=O)[C@H](CCCNC(=N)N)NC(=O)[C@@H]1CCCN1C(=O)[C@@H](N)[C@@H](C)O)C(=O)N[C@@H](CCCNC(=N)N)C(=O)N[C@@H](CCCNC(=N)N)C(=O)N[C@@H](CCCNC(=N)N)C(=O)N[C@@H](CCCCN)C(=O)N[C@@H](CCCCN)C(=O)N[C@@H](CCCNC(=N)N)C(=O)N(C)CC(N)=O`, with under 7.00; and `C[C@H](NC(=O)[C@H](C)NC(=O)[C@H](CCCNC(=N)N)NC(=O)[C@H](CCCNC(=N)N)NC(=O)[C@H](CCCNC(=N)N)NC(=O)[C@H](CCC(=O)O)NC(=O)[C@H](CCCNC(=N)N)NC(=O)[C@@H]1CCCN1C(=O)[C@@H](N)[C@@H](C)O)C(=O)N[C@@H](CCCNC(=N)N)C(N)=O`, with under 7.00; and `C[C@H](NC(=O)[C@H](C)NC(=O)[C@H](CCCNC(=N)N)NC(=O)[C@H](CCCNC(=N)N)NC(=O)[C@H](CCCNC(=N)N)NC(=O)[C@H](CCC(=O)O)NC(=O)[C@H](CCCNC(=N)N)NC(=O)[C@@H]1CCCN1C(=O)[C@@H](N)[C@@H](C)O)C(=O)N[C@@H](CCCNC(=N)N)C(=O)NCC(N)=O`, with under 7.00.
In the case of `C[C@H](NC(=O)[C@H](CCCNC(=N)N)NC(=O)[C@@H]1CCCN1C(=O)[C@@H](N)[C@@H](C)O)C(=O)N[C@@H](CCCNC(=N)N)C(=O)N[C@@H](CCCNC(=N)N)C(=O)N[C@@H](CCCNC(=N)N)C(=O)N[C@@H](CCCCN)C(=O)N[C@@H](CCCCN)C(=O)N[C@@H](CCCNC(=N)N)C(=O)N[C@@H](CC(=O)O)C(N)=O`, the negative logarithm of the Ki (pKi) was 7.25.
In the case of `C[C@H](N)C(=O)N[C@@H](C)C(=O)N[C@@H](C)C(=O)N[C@@H](CCC(=O)O)C(=O)N[C@@H](CCCNC(=N)N)C(=O)N[C@@H](CCCNC(=N)N)C(=O)N[C@@H](CCCNC(=N)N)C(=O)N[C@@H](CCCCN)C(=O)N[C@@H](CCCCN)C(=O)N[C@@H](CCCNC(=N)N)C(N)=O` (H-AAAERRRKKR-NH2), the pKi under setting [2] was under 7.00.
On the same count and under the same terms, then `C[C@H](N)C(=O)N[C@@H](C)C(=O)N[C@@H](C)C(=O)N[C@@H](CCC(=O)O)C(=O)N[C@@H](CCCNC(=N)N)C(=O)N[C@@H](CCCNC(=N)N)C(=O)N[C@@H](CCCNC(=N)N)C(=O)N[C@@H](CCCCN)C(=O)N[C@@H](CCCCN)C(=O)N[C@@H](CCCNC(=N)N)C(=O)NCC(N)=O` (H-AAAERRRKKRG-NH2), with under 7.00; and `CC(C)[C@H](NC(=O)[C@H](CCCNC(=N)N)NC(=O)[C@H](CCCCN)NC(=O)[C@H](CCCCN)NC(=O)[C@H](CCCNC(=N)N)NC(=O)[C@H](CCCNC(=N)N)NC(=O)[C@H](CCCNC(=N)N)NC(=O)[C@H](CCC(=O)O)NC(=O)[C@H](C)NC(=O)[C@H](C)NC(=O)[C@H](C)N)C(N)=O` (H-AAAERRRKKRV-NH2), with under 7.00; and `C[C@H](N)C(=O)N[C@@H](C)C(=O)N[C@@H](CCCNC(=N)N)C(=O)N[C@@H](CCC(=O)O)C(=O)N[C@@H](CCCNC(=N)N)C(=O)N[C@@H](CCCNC(=N)N)C(=O)N[C@@H](CCCNC(=N)N)C(=O)N[C@@H](CCCCN)C(=O)N[C@@H](CCCCN)C(=O)N[C@@H](CCCNC(=N)N)C(N)=O` (H-AARERRRKKR-NH2), with under 7.00.
With `C[C@H](N)C(=O)N[C@@H](C)C(=O)N[C@@H](CCCNC(=N)N)C(=O)N[C@@H](CCC(=O)O)C(=O)N[C@@H](CCCNC(=N)N)C(=O)N[C@@H](CCCNC(=N)N)C(=O)N[C@@H](CCCNC(=N)N)C(=O)N[C@@H](CCCCN)C(=O)N[C@@H](CCCCN)C(=O)N[C@@H](CCCNC(=N)N)C(=O)NCC(N)=O` (H-AARERRRKKRG-NH2), the pKi under setting [2] was under 7.00.
Turning to `CC(C)[C@H](NC(=O)[C@H](CCCNC(=N)N)NC(=O)[C@H](CCCCN)NC(=O)[C@H](CCCCN)NC(=O)[C@H](CCCNC(=N)N)NC(=O)[C@H](CCCNC(=N)N)NC(=O)[C@H](CCCNC(=N)N)NC(=O)[C@H](CCC(=O)O)NC(=O)[C@H](CCCNC(=N)N)NC(=O)[C@H](C)NC(=O)[C@H](C)N)C(N)=O` (H-AARERRRKKRV-NH2), the pKi under setting [2] was under 7.00.
With `C[C@H](N)C(=O)N1CCC[C@H]1C(=O)N[C@@H](CCCNC(=N)N)C(=O)N[C@@H](CCC(=O)O)C(=O)N[C@@H](CCCNC(=N)N)C(=O)N[C@@H](CCCNC(=N)N)C(=O)N[C@@H](CCCNC(=N)N)C(=O)N[C@@H](CCCCN)C(=O)N[C@@H](CCCCN)C(=O)N[C@@H](CCCNC(=N)N)C(N)=O` (H-APRERRRKKR-NH2), the pKi under setting [2] is under 7.00.
On the same count and under the same terms, then `C[C@H](N)C(=O)N1CCC[C@H]1C(=O)N[C@@H](CCCNC(=N)N)C(=O)N[C@@H](CCC(=O)O)C(=O)N[C@@H](CCCNC(=N)N)C(=O)N[C@@H](CCCNC(=N)N)C(=O)N[C@@H](CCCNC(=N)N)C(=O)N[C@@H](CCCCN)C(=O)N[C@@H](CCCCN)C(=O)N[C@@H](CCCNC(=N)N)C(=O)NCC(N)=O` (H-APRERRRKKRG-NH2), with under 7.00; and `CC(C)[C@H](NC(=O)[C@H](CCCNC(=N)N)NC(=O)[C@H](CCCCN)NC(=O)[C@H](CCCCN)NC(=O)[C@H](CCCNC(=N)N)NC(=O)[C@H](CCCNC(=N)N)NC(=O)[C@H](CCCNC(=N)N)NC(=O)[C@H](CCC(=O)O)NC(=O)[C@H](CCCNC(=N)N)NC(=O)[C@@H]1CCCN1C(=O)[C@H](C)N)C(N)=O` (H-APRERRRKKRV-NH2), with under 7.00.
Consider `C[C@H](NC(=O)[C@H](C)NC(=O)[C@@H](N)[C@@H](C)O)C(=O)N[C@@H](CCC(=O)O)C(=O)N[C@@H](CCCNC(=N)N)C(=O)N[C@@H](CCCNC(=N)N)C(=O)N[C@@H](CCCNC(=N)N)C(=O)N[C@@H](CCCCN)C(=O)N[C@@H](CCCCN)C(=O)N[C@@H](CCCNC(=N)N)C(N)=O` (H-TAAERRRKKR-NH2), for which the negative-log Ki (pKi) under setting [2] was under 7.00.

(Values after US8053553B2, “Targeting host proteinases as a therapeutic strategy against viral and bacterial pathogens” (Socpra Sciences Sante Et Humaines, priority 2007, dated 2011).)
